Source: patent US8835440B2, “Cyclic pyrimidin-4-carboxamides as CCR2 receptor antagonists for treatment of inflammation, asthma and COPD” (Boehringer Ingelheim International GmbH, priority 2008, dated 2014)

Target: T1, CCR2 (Homo sapiens, UniProt P41597)
T1 construct: Membranes were prepared from THP-1 cells; endogenous in cells; host or cells: THP-1 cells (membrane preparation)
T1 sequence (P41597 1-360 isoform P41597-2): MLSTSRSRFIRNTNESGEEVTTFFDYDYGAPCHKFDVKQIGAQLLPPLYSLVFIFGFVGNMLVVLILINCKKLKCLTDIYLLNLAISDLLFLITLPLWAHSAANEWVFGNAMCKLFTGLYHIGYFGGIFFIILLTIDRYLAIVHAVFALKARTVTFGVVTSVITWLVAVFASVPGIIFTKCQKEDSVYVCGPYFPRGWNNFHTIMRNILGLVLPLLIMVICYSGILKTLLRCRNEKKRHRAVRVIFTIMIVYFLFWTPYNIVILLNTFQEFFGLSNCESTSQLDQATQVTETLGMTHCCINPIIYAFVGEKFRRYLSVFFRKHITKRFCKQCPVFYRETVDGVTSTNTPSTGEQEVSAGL
Assay: CCR2 receptor membrane binding assay ([125I]MCP-1, THP-1 cell membranes, SPA beads)
Settings: for remaining activity at 10 µM / CCR2 % ctrl @ 10 μM: @ 10 μM test compound, THP-1 membranes; for remaining activity at 10 µM: read-out: CCR2 % ctrl @ 10 μM; for Ki: dissociation constant hKi, [125I]MCP-1 binding to THP-1 membranes
Method: The above exemplary substances have been tested for binding to CCR2 using a binding assay as outlined herein below:
THP-1 cells (human acute monocytic leukaemia cells) were cultured under standardized conditions at 37° C. and 5% CO2 in a humidified incubator. THP-1 cells were cultivated in RPMI 1640 medium (Gibco 21875) containing 1% MEM-NEAA (Gibso 11140) 2 mM L-glutamine, 1.5 g/L sodium bicarbonate, 4.5 g/L glucose, 10 mM HEPES and 1.0 mM sodium pyruvate, 90%; 10% fetal calf serum (FCS Gibco 10500-064).
Membranes were prepared from THP-1 cells. THP-1 cells were centrifuged at 300×g at 4° C. for 10 min. The cell pellet was resuspendet in Phosphate Buffer Saline (PBS, including 10 μM Pefabloc and a protease inhibitor mix ‘complete’, Boehringer Mannheim (1 tablet/50 ml)), to a concentration of […]. The membrane preparation was performed by disrupting the cells by nitrogen […] (at 50 bar, for 1 h) in a “Nitrogen Bombe” (Parr Instrument). Cell debris was removed by centrifugation (800×g at 4° C., 1 min). The supernatant was centrifuged at 80000×g, 4° C. for 30 min to sediment the cell membranes. Usually 50 mg of protein (Bradford assay) were yielded from 1×10E9 cells. The membranes were resuspendet in 25 mM HEPES, 25 mM MgCl2, 1 mM CaCl2, 10% Glycerine for storage in aliquots at −80° C. in 25 mM HEPES, 25 mM MgCl2, 1 mM CaCl2, 10% Glycerine and stored at −80° C.
Receptor Membrane Binding Assay:
Perkin Elmer NEX 332 Jod 125 MCP-1, Stock: 2200 Ci/mmol solved in 2000 μl assay buffer, stored at −20° C. THP-1 membrane were adjusted with 25 mM HEPES, pH 7.2; 5 mM MgCl2; 0.5 mM CaCl2; 0.2% BSA assay buffer to a concentration of […]. Amersham Biosciences PVT-WGA Beads (RPNQ0001) were adjusted with assay buffer to a concentration of 0.24 mg/30 μl. For preparation of the membrane-bead-suspension membranes and beads were incubated for 30 min at RT under rotation (60 rpm) with a ratio of 1:2. Test compounds dissolved in 100% DMSO to a concentration of 10 mM and are further diluted with 100% DMSO to 1 mM. All additional compound dilutions were obtained with assay buffer, final 1% DMSO. Compounds, membrane-bead-suspension and [125I]MCP-1 (ca. 25000 cpm/10 μl) were incubated. Bound radioactivity was determined by scintillation counter after 8 h. Determination of affinity of test compounds (dissociation constant hKi) is calculated by iterative fitting of experimental data using the “easy sys” program, which is based on law of mass action (Schittkowski K. (1994), Numerische Mathematik, Vol. 68, 129-142).

remaining activity at 10 µM [%]	Ki [nM]	CCR2 % ctrl @ 10 μM [% ctrl]	SMILES
29	770	–	Cc1nc(NC2CCCC(c3ccccc3)C2)c(C)c(C(=O)N2CCC(N3CCC(NS(C)(=O)=O)CC3)CC2)n1 (centres unmarked) [Example 89]
10	127	–	Cc1nc(NCC2COc3ccccc3C2)c(C)c(C(=O)N2CCC(N3CCC(NS(C)(=O)=O)CC3)CC2)n1 (centres unmarked) [Example 90]
23	236	–	Cc1nc(NCCc2ccc(Cl)c(Cl)c2)c(C)c(C(=O)N2CCC(N3CCC(O)CC3)CC2)n1 [Example 91]
14	175	–	Cc1nc(NCc2ccc(Cl)c(Cl)c2)c(C)c(C(=O)N2CCC(N3CCC(O)CC3)CC2)n1 [Example 92]
6	123	–	CNC(=O)C1CCN(C2CCN(C(=O)c3ncnc(NCC4CCN(c5ccccc5)C4)c3C)CC2)CC1 (centres unmarked) [Example 93]
8	211	–	COC1CCN(C2CCN(C(=O)c3ncnc(NCc4ccc(C(C)C)cc4)c3C)CC2)CC1 [Example 94]
2	170	–	COC1CCN(C2CCN(C(=O)c3ncnc(NCc4ccc(Cl)c(F)c4)c3C)CC2)CC1 [Example 95]
21	939	–	COC1CCN(C2CCN(C(=O)c3ncnc(NCC4CCN(c5ccccc5)CC4)c3C)CC2)CC1 [Example 96]
17	665	–	COC1CCN(C2CCN(C(=O)c3ncnc(NCC4CCCN(c5ccccc5)C4)c3C)CC2)CC1 (centres unmarked) [Example 97]
2	214	–	COC1CCN(C2CCN(C(=O)c3ncnc(NCc4ccc(C)c(Cl)c4)c3C)CC2)CC1 [Example 98]
32	1830	–	Cc1c(NCCc2ccccc2)ncnc1C(=O)N1CCC(N2CCC(O)CC2)CC1 [Example 99]
18	395	–	Cc1c(NCc2cccc(-c3ccccc3)c2)ncnc1C(=O)N1CCC(N2CCCC(O)C2)CC1 (centres unmarked) [Example 100]
35	986	–	Cc1c(NCc2ccc(-c3ccccc3)cc2)ncnc1C(=O)N1CCC(N2CCC(O)CC2)CC1 [Example 101]
15	224	–	Cc1c(NCc2cccc(-c3ccccc3)c2)ncnc1C(=O)N1CCC(N2CCC(O)CC2)CC1 [Example 102]
30	1610	–	O=C(c1cc(NCc2ccc(-c3ccccc3)cc2)ncn1)N1CCC(N2CCCC(O)C2)CC1 (centres unmarked) [Example 103]
–	617	31	Cc1ccc(CNc2ncnc(C(=O)N3CCC(N4CCCCC4)CC3)c2C)cc1F [Example 104]
31	687	–	COc1ccc(CCNc2ncnc(C(=O)N3CCC(N4CCC(O)CC4)CC3)c2C)cc1Cl [Example 105]
13	405	–	Cc1c(NCCc2ccc(C(C)C)cc2)ncnc1C(=O)N1CCC(N2CCC(O)CC2)CC1 [Example 106]
12	232	–	Cc1c(NCc2ccc(Cl)c(Cl)c2)ncnc1C(=O)N1CCC(N2CCOCC2)CC1 [Example 107]
20	627	–	Cc1c(NCC2CCCCC2)ncnc1C(=O)N1CCC(N2CCC(O)CC2)CC1 [Example 108]
11	213	–	Cc1c(NCc2ccc(Cl)c(Cl)c2)ncnc1C(=O)N1CCC(N2CCC(O)CC2)CC1 [Example 109]
28	527	–	Cc1c(NCc2ccc(Cl)cc2)ncnc1C(=O)N1CCC(N2CCC(O)CC2)CC1 [Example 110]
27	464	–	Cc1c(NCc2ccc(F)c(Cl)c2)ncnc1C(=O)N1CCC(N2CCC(O)CC2)CC1 [Example 111]

remaining activity at 10 µM [%]	Ki [nM]	CCR2 % ctrl @ 10 μM [% ctrl]	SMILES
21	378	–	Cc1c(NCCc2ccc(C(C)(C)C)cc2)ncnc1C(=O)N1CCC(N2CCC(O)CC2)CC1 [Example 112]
46	3310	–	Cc1c(NCC2CCN(c3ccccc3)CC2)ncnc1C(=O)N1CCC(N2CCC(O)CC2)CC1 [Example 113]
8	62	–	Cc1c(NCC2CCCC(c3ccccc3)C2)ncnc1C(=O)N1CCC(N2CCC(O)CC2)CC1 (centres unmarked) [Example 114]
33	847	–	Cc1c(NCCc2ccc(F)c(F)c2)ncnc1C(=O)N1CCC(N2CCC(O)CC2)CC1 [Example 115]
16	198	–	Cc1c(NCc2ccc(C(F)(F)F)c(Cl)c2)ncnc1C(=O)N1CCC(N2CCC(O)CC2)CC1 [Example 116]
19	285	–	Cc1c(NCc2ccc(Cl)c(F)c2)ncnc1C(=O)N1CCC(N2CCC(O)CC2)CC1 [Example 117]
41	2160	–	Cc1cc(CNc2ncnc(C(=O)N3CCC(N4CCC(O)CC4)CC3)c2C)ccc1F [Example 118]
–	1030	37	COc1ccc(CCNc2ncnc(C(=O)N3CCC(N4CCC(O)CC4)CC3)c2C)cc1Cl [Example 119]
30	499	–	Cc1ccc(CNc2ncnc(C(=O)N3CCC(N4CCC(O)CC4)CC3)c2C)cc1F [Example 120]
15	147	–	Cc1c(NCC2CCC(c3ccccc3)CC2)ncnc1C(=O)N1CCC(N2CCC(O)CC2)CC1 (centres unmarked) [Example 121]
23	415	–	Cc1c(NCCc2cccc(Cl)c2)ncnc1C(=O)N1CCC(N2CCC(O)CC2)CC1 [Example 122]
26	542	–	Cc1c(NCc2cccc(Cl)c2)ncnc1C(=O)N1CCC(N2CCC(O)CC2)CC1 [Example 123]
20	361	–	Cc1c(NCCc2ccc(Cl)cc2)ncnc1C(=O)N1CCC(N2CCC(O)CC2)CC1 [Example 124]
25	446	–	Cc1c(NCc2ccc(Cl)c(C(F)(F)F)c2)ncnc1C(=O)N1CCC(N2CCC(O)CC2)CC1 [Example 125]
23	399	–	Cc1ccc(CCNc2ncnc(C(=O)N3CCC(N4CCC(O)CC4)CC3)c2C)cc1C [Example 126]
35	665	–	Cc1c(NCc2ccc(Cl)cc2)ncnc1C(=O)N1CCC(N2CCCCC2)CC1 [Example 127]
26	445	–	Cc1c(NCc2ccc(F)c(Cl)c2)ncnc1C(=O)N1CCC(N2CCCCC2)CC1 [Example 128]
21	336	–	Cc1c(NCCc2ccc(C(C)(C)C)cc2)ncnc1C(=O)N1CCC(N2CCCCC2)CC1 [Example 129]
50	4270	–	Cc1c(NCC2CCN(c3ccccc3)CC2)ncnc1C(=O)N1CCC(N2CCCCC2)CC1 [Example 130]
6	55	–	Cc1c(NCC2CCCC(c3ccccc3)C2)ncnc1C(=O)N1CCC(N2CCCCC2)CC1 (centres unmarked) [Example 131]
31	672	–	Cc1c(NCCc2ccc(F)c(F)c2)ncnc1C(=O)N1CCC(N2CCCCC2)CC1 [Example 132]
15	205	–	Cc1c(NCc2ccc(C(F)(F)F)c(Cl)c2)ncnc1C(=O)N1CCC(N2CCCCC2)CC1 [Example 133]
23	399	–	Cc1c(NCc2ccc(Cl)c(F)c2)ncnc1C(=O)N1CCC(N2CCCCC2)CC1 [Example 134]
